In ChEMBL document CHEMBL4184334, “From Cancer to Pain Target by Automated Selectivity Inversion of a Clinical Candidate” (J Med Chem, 2018):
Active and inactive are the calls of the source. The calls are words filed in the database; no cut-off is given here.

Columns and labels:
[1] = target: Proto-oncogene tyrosine-protein kinase receptor Ret (Homo sapiens) (UniProt P07949); experiment: Inhibition of DNA-tagged human partial length RET expressed in bacterial expression system at 100 nM by qPCR method
Homo sapiens = organism: Homo sapiens; experiment: Selectivity ratio of Kd for DNA-tagged human partial length AURKA to Kd for DNA-tagged human partial length TrkA
[2] = target: NT-3 growth factor receptor (Homo sapiens) (UniProt Q16288); experiment: Inhibition of DNA-tagged human partial length TrkC expressed in mammalian expression system at 100 nM by qPCR method
[3] = target: BDNF/NT-3 growth factors receptor (Homo sapiens) (UniProt Q16620); experiment: Inhibition of DNA-tagged human partial length TrkB expressed in mammalian expression system at 100 nM by qPCR method
[4] = target: Tyrosine-protein kinase ABL1 (Homo sapiens, UniProt P00519); experiment: Inhibition of DNA-tagged human nonphosphorylated partial length ABL1 expressed in mammalian expression system at 100 nM by qPCR method; conditions: 0.1 µM
[5] = target: High affinity nerve growth factor receptor (Homo sapiens) (UniProt P04629); experiment: Inhibition of DNA-tagged human partial length TrkA expressed in mammalian expression system assessed as remaining activity at 100 nM by qPCR method
[6] = target: Mast/stem cell growth factor receptor Kit (Homo sapiens) (UniProt P10721); experiment: Inhibition of DNA-tagged human partial length KIT expressed in bacterial expression system at 100 nM by qPCR method
[7] = target: Platelet-derived growth factor receptor beta (Homo sapiens) (UniProt P09619); experiment: Inhibition of DNA-tagged human partial length PDGFRB expressed in mammalian expression system at 100 nM by qPCR method
[8] = target: Tyrosine-protein kinase JAK2 (Homo sapiens, UniProt O60674); experiment: Inhibition of DNA-tagged human partial length JAK2 JH1 domain-catalytic expressed in mammalian expression system at 100 nM by qPCR method; conditions: 0.1 µM
[9] = target: T1, Tyrosine-protein kinase JAK3 (Homo sapiens) (UniProt P52333); experiment: Inhibition of DNA-tagged human partial length JAK3 JH1 domain-catalytic expressed in mammalian expression system at 100 nM by qPCR method
T1 sequence (whole entry): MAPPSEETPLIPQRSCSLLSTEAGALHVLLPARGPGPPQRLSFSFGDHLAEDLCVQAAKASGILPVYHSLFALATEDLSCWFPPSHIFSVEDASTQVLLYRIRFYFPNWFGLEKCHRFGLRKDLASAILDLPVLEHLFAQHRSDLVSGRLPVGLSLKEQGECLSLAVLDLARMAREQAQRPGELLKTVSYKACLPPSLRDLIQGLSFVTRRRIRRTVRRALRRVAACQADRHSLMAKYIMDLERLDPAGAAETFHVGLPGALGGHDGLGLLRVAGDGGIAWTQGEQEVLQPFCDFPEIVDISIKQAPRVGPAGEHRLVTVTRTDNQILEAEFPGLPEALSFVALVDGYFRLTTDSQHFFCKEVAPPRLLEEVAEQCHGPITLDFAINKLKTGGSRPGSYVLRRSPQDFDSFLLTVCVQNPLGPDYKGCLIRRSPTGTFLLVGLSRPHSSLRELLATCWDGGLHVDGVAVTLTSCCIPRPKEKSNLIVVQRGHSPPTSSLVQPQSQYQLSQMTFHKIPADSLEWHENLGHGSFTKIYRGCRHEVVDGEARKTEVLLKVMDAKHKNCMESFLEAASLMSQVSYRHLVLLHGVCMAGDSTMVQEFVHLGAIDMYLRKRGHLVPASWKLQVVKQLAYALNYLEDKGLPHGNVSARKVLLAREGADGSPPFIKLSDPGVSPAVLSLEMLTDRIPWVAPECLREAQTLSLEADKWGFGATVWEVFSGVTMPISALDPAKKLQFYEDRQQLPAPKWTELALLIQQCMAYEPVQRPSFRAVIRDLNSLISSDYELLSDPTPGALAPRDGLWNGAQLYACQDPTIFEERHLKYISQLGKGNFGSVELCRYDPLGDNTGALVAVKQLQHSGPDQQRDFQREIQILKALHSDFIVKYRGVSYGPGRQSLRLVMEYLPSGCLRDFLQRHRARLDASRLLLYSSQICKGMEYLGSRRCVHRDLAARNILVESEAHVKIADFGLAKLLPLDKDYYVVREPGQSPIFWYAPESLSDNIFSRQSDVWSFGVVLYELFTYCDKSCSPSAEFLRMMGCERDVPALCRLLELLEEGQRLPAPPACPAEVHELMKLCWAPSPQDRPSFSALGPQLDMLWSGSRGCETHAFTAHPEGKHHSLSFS

[10] = target: Tyrosine-protein kinase ABL1 (Homo sapiens, UniProt P00519, T315I); experiment: Inhibition of DNA-tagged human phosphorylated partial length ABL1 T315I mutant expressed in mammalian expression system at 100 nM by qPCR method; conditions: 0.1 µM
Aurora kinase A = target: T2, Aurora kinase A (Homo sapiens, UniProt O14965); experiment: Inhibition of DNA-tagged human partial length AURKA expressed in mammalian expression system at 100 nM by qPCR method; conditions: 0.1 µM
T2 sequence (O14965 whole entry): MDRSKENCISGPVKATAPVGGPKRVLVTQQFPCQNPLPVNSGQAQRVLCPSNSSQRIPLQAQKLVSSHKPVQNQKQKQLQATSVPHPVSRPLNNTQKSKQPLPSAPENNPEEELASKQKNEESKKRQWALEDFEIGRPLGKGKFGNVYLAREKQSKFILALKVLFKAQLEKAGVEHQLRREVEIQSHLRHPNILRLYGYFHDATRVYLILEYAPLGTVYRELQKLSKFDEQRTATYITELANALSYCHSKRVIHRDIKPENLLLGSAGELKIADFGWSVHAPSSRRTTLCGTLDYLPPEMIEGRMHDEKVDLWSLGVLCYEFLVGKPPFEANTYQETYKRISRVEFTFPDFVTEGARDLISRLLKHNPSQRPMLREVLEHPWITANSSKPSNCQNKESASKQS

NT-3 growth factor receptor (Homo sapiens), sequence (Q16288 32-839 limits assumed): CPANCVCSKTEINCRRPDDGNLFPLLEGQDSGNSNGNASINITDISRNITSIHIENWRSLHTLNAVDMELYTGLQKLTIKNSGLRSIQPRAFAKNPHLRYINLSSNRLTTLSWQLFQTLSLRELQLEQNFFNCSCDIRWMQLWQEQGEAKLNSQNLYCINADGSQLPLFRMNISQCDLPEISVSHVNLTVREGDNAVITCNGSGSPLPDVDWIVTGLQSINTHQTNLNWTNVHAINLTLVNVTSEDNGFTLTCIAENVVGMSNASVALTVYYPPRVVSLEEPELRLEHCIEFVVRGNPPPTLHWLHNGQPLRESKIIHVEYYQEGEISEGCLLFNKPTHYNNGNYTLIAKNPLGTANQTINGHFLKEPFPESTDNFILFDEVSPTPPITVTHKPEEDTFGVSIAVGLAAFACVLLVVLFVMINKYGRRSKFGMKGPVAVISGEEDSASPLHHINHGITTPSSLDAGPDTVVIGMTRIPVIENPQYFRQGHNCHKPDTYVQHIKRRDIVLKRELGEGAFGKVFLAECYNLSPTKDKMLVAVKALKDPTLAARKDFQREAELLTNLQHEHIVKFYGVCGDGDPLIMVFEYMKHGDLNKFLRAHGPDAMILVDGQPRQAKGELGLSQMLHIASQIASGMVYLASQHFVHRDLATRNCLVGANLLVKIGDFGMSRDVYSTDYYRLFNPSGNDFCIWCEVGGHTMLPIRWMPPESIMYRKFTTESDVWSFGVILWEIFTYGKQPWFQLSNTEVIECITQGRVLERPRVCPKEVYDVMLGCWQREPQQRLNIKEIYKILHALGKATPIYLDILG
Proto-oncogene tyrosine-protein kinase receptor Ret (Homo sapiens), sequence (P07949 whole entry): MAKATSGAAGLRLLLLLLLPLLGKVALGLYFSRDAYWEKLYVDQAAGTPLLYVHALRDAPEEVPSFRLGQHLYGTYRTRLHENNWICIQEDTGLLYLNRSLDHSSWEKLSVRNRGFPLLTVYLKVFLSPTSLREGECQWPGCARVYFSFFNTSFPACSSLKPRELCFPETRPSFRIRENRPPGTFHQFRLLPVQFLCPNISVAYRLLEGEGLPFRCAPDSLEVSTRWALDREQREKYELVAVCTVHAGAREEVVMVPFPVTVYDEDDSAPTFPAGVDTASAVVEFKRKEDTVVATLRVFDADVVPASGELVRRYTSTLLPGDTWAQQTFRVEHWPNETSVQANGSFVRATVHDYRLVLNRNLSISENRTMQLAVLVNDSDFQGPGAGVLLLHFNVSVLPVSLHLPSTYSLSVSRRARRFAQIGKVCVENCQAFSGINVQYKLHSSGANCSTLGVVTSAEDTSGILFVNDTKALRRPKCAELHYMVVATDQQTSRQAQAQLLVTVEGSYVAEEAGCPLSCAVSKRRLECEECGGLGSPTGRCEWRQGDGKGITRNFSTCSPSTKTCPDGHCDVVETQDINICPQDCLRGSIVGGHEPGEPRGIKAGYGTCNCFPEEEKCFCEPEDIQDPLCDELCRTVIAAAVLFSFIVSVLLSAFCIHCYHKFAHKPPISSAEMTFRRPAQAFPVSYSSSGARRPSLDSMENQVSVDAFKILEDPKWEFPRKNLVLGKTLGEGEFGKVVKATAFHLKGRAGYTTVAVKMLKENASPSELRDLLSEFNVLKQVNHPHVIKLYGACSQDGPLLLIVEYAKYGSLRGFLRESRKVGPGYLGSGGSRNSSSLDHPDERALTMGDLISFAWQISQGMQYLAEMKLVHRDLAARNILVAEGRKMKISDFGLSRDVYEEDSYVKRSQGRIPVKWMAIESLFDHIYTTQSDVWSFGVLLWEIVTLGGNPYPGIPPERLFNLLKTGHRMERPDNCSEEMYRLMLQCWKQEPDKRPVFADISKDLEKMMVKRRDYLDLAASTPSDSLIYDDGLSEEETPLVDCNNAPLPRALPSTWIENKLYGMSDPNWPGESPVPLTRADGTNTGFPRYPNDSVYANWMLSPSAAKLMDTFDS
Platelet-derived growth factor receptor beta (Homo sapiens), sequence (P09619 whole entry, the tested form may be a part): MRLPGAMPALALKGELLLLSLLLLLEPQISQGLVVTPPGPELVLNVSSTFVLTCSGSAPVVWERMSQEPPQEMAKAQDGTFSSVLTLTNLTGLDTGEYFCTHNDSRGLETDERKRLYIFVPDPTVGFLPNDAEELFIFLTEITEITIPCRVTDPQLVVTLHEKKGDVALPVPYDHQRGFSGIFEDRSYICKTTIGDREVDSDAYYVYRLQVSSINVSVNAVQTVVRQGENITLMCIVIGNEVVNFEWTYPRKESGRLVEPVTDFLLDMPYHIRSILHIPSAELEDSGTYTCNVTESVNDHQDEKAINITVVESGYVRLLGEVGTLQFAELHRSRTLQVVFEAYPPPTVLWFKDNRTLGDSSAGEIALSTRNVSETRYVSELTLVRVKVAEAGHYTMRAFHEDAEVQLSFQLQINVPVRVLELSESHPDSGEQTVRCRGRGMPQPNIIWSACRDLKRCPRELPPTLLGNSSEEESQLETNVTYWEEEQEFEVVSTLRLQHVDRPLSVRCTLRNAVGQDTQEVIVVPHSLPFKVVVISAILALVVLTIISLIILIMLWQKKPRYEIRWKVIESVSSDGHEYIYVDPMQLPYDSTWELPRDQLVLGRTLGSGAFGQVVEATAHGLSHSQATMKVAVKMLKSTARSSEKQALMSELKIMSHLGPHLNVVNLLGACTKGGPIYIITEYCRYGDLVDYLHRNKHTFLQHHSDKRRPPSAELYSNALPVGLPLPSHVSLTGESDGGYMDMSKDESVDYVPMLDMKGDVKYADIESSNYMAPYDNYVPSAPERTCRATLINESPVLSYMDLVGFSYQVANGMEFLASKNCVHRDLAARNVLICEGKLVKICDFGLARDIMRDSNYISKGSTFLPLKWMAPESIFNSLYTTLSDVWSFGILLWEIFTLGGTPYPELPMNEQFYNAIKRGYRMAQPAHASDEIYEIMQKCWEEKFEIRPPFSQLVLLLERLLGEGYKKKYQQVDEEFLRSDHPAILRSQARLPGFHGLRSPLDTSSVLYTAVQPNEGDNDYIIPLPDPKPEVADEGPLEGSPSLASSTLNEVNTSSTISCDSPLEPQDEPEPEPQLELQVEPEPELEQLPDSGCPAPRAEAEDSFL
BDNF/NT-3 growth factors receptor (Homo sapiens), sequence (Q16620 32-822 limits assumed): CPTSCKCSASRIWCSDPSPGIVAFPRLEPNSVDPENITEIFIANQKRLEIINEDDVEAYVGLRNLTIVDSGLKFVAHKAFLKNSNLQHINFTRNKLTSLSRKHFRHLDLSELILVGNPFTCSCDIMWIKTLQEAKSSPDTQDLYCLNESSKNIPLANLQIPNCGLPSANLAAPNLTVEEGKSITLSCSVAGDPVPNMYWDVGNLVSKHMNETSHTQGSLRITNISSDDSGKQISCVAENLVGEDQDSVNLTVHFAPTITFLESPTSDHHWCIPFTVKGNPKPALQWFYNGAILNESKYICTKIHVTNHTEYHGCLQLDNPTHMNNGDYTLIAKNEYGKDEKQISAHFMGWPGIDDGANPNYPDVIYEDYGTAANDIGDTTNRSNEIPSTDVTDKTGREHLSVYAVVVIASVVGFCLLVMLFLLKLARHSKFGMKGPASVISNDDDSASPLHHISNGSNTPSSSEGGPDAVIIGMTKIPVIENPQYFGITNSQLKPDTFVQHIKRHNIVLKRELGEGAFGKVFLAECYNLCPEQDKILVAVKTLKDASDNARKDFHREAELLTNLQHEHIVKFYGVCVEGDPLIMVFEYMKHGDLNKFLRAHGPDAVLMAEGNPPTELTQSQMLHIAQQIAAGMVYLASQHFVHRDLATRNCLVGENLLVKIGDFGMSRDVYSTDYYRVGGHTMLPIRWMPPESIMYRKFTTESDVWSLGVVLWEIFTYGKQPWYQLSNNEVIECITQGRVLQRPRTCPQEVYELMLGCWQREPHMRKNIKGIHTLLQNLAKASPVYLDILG
Mast/stem cell growth factor receptor Kit (Homo sapiens), sequence (P10721 whole entry): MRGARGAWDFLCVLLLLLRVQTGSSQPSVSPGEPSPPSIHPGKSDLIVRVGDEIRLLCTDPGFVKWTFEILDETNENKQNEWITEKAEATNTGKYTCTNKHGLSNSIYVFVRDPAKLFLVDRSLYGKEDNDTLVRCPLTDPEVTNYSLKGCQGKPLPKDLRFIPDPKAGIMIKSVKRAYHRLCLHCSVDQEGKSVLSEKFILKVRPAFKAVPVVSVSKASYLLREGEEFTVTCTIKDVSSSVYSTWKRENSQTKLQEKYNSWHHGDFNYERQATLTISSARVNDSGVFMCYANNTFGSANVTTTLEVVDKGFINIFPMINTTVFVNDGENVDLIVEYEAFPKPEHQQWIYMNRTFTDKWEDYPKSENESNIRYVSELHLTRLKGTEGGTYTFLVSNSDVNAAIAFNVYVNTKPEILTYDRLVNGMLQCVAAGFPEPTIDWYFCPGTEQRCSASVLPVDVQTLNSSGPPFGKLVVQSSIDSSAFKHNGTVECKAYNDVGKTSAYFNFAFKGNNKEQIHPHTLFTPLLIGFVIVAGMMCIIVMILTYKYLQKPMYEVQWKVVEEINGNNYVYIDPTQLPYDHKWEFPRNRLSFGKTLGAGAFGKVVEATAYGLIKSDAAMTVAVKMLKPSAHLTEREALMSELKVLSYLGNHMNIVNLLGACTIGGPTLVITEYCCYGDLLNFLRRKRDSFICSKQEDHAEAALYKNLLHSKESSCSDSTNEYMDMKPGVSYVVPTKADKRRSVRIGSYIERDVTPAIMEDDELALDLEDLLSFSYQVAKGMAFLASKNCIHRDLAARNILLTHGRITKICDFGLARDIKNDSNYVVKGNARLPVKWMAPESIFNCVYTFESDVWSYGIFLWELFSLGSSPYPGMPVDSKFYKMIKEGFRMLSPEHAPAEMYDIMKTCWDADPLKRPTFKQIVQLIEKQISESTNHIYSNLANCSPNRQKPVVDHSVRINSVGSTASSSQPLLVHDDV

Cc1cc(Nc2cc(N3CCN(C)CC3)nc(Sc3ccc(NC(=O)C4CC4)cc3)n2)n[nH]1
inhibition [1]: Active

CN1CCN(c2cc(Nc3cc(-c4cccc(F)c4)[nH]n3)nc(Sc3ccccc3)n2)CC1
Selectivity ratio (Homo sapiens): 1000 | inhibition [2]: Active | inhibition [3]: Active | inhibition (INH) [4]: Not Active | Activity [5]: < 1% | inhibition [1]: Active | inhibition [6]: Active | inhibition [7]: Active | inhibition (INH) [8]: Not Active | inhibition [9]: inactive | inhibition (INH) [10]: Not Active

Cc1ccc(CSc2nc(Nc3cc(C)[nH]n3)cc(N3CCN(C)CC3)n2)cc1
inhibition [2]: inactive | inhibition [3]: inactive | inhibition [7]: inactive

CN1CCN(c2cc(Nc3cc(C(C)(C)C)[nH]n3)nc(Sc3ccccc3)n2)CC1
inhibition (INH) (Aurora kinase A): Not Active
